Target: human-cGAS (h-cGAS) (Homo sapiens, UniProt Q8N884)
Experiment: hcGAS Kinase-Glo Assay
Type: biochemical
Conditions: 40 nM h-cGAS, 100 μM ATP, 100 μM GTP, 25 nM dsDNA, 3 h incubation, read-out: hcGAS potency IC50
How it was run: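 Kinase-Glo luminescent read-out of human cGAS activity, following the published Lama et al. (2019) protocol with slightly altered conditions. Inhibition reported as IC50.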

human-cGAS (h-cGAS), sequence (Q8N884 whole entry): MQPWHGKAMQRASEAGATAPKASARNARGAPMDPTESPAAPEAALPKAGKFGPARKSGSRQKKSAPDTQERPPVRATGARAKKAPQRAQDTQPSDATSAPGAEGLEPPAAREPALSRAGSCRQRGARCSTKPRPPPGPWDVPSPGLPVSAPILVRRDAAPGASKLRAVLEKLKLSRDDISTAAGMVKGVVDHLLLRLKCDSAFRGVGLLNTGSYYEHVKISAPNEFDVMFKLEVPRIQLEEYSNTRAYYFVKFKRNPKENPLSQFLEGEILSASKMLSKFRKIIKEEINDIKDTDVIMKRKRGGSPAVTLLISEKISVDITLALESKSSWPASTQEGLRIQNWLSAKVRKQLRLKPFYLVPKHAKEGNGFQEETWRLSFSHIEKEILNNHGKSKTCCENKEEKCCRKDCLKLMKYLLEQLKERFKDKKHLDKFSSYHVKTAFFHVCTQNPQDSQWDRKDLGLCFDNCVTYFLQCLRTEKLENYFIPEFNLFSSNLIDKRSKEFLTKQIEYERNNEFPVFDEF

Structure (SMILES) | IC50 [nM]
Cc1nn(C)cc1-c1cc(C(=O)Nc2nnc(-c3ccccc3Cl)s2)on1 [Compound 54, N-(5-(2-chlorophenyl)-1,3,4-thiadiazol-2-yl)-3-(1,3-dimethyl-1H-pyrazol-4-yl)isoxazole-5-carboxamide] | 100 to 500
CSc1nnc(NC(=O)c2onc3ccccc23)s1 [Compound 79, N-(5-(methylthio)-1,3,4-thiadiazol-2-yl)benzo[c]isoxazole-3-carboxamide] | 500 to 1000
CSc1nnc(NC(=O)c2cc(-c3cc(F)ccc3F)no2)s1 [Compound 47, 3-(2,5-difluorophenyl)-N-(5-(methylthio)-1,3,4-thiadiazol-2-yl)isoxazole-5-carboxamide] | 500 to 1000
O=C(Nc1nnc(-c2ccccn2)s1)c1onc2c1ccc1cccnc12 [Compound 10, N-(5-(pyridin-2-yl)-1,3,4-thiadiazol-2-yl)isoxazolo[4,3-h]quinoline-3-carboxamide] | 100 to 500
CSc1nnc(NC(=O)c2noc(-c3ccccn3)n2)s1 [Compound 104, N-[5-(methylsulfanyl)-1,3,4-thiadiazol-2-yl]-5-(132yridine-2-yl)-1,2,4-oxadiazole-3-carboxamide] | 500 to 1000
CSc1nnc(NC(=O)c2cc(-c3ccc(Cl)cc3)no2)s1 [Compound 50, 3-(4-chlorophenyl)-N-(5-(methylthio)-1,3,4-thiadiazol-2-yl)isoxazole-5-carboxamide] | 500 to 1000
O=C(Nc1ccccc1Cl)c1nnn2ccc(=O)[nH]c12 [Compound 97, N-(2-chlorophenyl)-5-oxo-4H-[1,2,3]triazolo[1,5-a]pyrimidine-3-carboxamide] | ≥ 1000
O=C(Nc1nnc(-c2ccccc2Cl)s1)c1cc(=O)c2cccc(O)c2[nH]1 [Compound 51, N-(5-(2-chlorophenyl)-1,3,4-thiadiazol-2-yl)-8-hydroxy-4-oxo-1,4-dihydroquinoline-2-carboxamide] | 500 to 1000

More lines, now with the values ahead:

IC50 [nM] | Structure (SMILES)
≥ 1000 | CSc1nnc(NC(=O)c2onc3ccc(CO)cc23)s1 [Compound 191, 5-(hydroxymethyl)-N-(5-(methylthio)-1,3,4-thiadiazol-2-yl)benzo[c]isoxazole-3-carboxamide]
100 to 500 | CSc1nnc(NC(=O)c2cc(-c3ccccc3C)cc(=O)o2)s1 [Compound 248]
≥ 1000 | O=C(O)Cc1nnc(NC(=O)c2onc3ccccc23)s1 [Compound 132, [5-(2,1-benzoxazole-3-amido)-1,3,4-thiadiazol-2-yl]acetic acid]
500 to 1000 | CSc1nnc(NC(=O)c2nnn(-c3ccccc3F)n2)s1 [Compound 138, 2-(2-fluorophenyl)-N-[5-(methylsulfanyl)-1,3,4-thiadiazol-2-yl]-1,2,3,4-tetrazole-5-carboxamide]
500 to 1000 | CSc1nnc(NC(=O)c2nnc(N3CCCC3CO)o2)s1 (centres unmarked) [Compound 115, 5-[2-(hydroxymethyl)pyrrolidin-1-yl]-N-[5-(methylsulfanyl)-1,3,4-thiadiazol-2-yl]-1,3,4-oxadiazole-2-carboxamide]
500 to 1000 | CSc1nnc(NC(=O)c2cc(-c3ccnc4ccccc34)cc(=O)o2)s1 [Compound 247, N-(5-methylsulfanyl-1,3,4-thiadiazol-2-yl)-6-oxo-4-(4-quinolyl)pyran-2-carboxamide]
500 to 1000 | CSc1nnc(NC(=O)c2cc(-c3ccc(C)cc3)no2)s1 [Compound 215, 3-(4-methylphenyl)-N-[5-(methylsulfanyl)-1,3,4-thiadiazol-2-yl]-1,2-oxazole-5-carboxamide]
≥ 1000 | CSc1nnc(NC(=O)c2cc(-c3ccns3)no2)s1 [Compound 140, N-[5-(methylsulfanyl)-1,3,4-thiadiazol-2-yl]-3-(1,2-thiazol-5-yl)-1,2-oxazole-5-carboxamide]
100 to 500 | Cc1cnc(-c2cc(C(=O)Nc3nnc(-c4ccccc4Cl)s3)on2)nc1 [Compound 158, N-(5-(2-Chlorophenyl)-1,3,4-thiadiazol-2-yl)-3-(5-methylpyrimidin-2-yl)isoxazole-5-carboxamide]
100 to 500 | CSc1nnc(NC(=O)c2cc(-c3ccc(C)cc3)cc(=O)o2)s1 [Compound 250, N-(5-methylsulfanyl-1,3,4-thiadiazol-2-yl)-6-oxo-4-(p-tolyl)pyran-2-carboxamide]
< 100 | O=C(Nc1nnc(-c2ccccc2Cl)s1)c1onc2c(C(=O)O)cccc12 [Compound 178, 3-((5-(2-chlorophenyl)-1,3,4-thiadiazol-2-yl)carbamoyl)benzo[c]isoxazole-7-carboxylic acid]
≥ 1000 | COc1ccc(Cc2ccc3noc(C(=O)Nc4nnc(SC)s4)c3c2)cc1O [Compound 187, 5-(3-hydroxy-4-methoxybenzyl)-N-(5-(methylthio)-1,3,4-thiadiazol-2-yl)benzo[c]isoxazole-3-carboxamide]

— patent US20250002487A1, “HETEROCYCLIC COMPOUNDS AND USES THEREOF” (Ventus Therapeutics U.S., Inc., priority 2021, published 2025)
